Assay results taken from patent publication US8658638B2, “Mineralocorticoid receptor antagonist and methods of use” (priority 2009, dated 2014).

Biological target: T1, human GR (glucocorticoid receptor) (Homo sapiens, UniProt P04150)
T1 construct: expressed in transfected cells; host or cells: HEK293 (293-GR lysate)
T1 sequence (P04150 1-777): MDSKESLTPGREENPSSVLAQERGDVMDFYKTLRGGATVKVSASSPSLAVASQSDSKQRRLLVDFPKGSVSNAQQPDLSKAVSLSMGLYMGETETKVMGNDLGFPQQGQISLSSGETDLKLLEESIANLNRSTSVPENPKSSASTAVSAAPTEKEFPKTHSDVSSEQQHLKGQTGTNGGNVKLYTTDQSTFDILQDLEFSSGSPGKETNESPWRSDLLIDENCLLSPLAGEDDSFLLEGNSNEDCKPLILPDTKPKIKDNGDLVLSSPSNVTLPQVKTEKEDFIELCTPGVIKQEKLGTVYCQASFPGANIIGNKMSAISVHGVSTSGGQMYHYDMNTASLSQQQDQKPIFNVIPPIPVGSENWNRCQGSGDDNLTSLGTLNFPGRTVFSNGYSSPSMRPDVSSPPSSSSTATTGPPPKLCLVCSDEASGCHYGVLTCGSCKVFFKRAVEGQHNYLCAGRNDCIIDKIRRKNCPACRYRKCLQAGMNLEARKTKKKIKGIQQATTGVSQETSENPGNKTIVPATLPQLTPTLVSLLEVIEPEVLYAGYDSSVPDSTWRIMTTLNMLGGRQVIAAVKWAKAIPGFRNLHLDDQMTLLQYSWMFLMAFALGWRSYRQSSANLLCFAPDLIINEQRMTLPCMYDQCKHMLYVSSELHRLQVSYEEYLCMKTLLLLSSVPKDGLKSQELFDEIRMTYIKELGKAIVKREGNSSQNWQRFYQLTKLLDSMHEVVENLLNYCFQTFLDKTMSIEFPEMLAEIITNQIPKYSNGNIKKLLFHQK
Test: Steroid nuclear hormone receptor binding assay, GR
Conditions: [3H]-dexamethasone, HEK293 lysate overexpressing human GR
Experimental: Cell lysates from human embryonic kidney HEK293 cells overexpressing human MR (mineralocorticoid receptor), GR (glucocorticoid receptor), AR (androgen receptor), or PR (progesterone receptor) are used for receptor-ligand competition binding assays to determine Ki values.
Briefly, steroid receptor competition binding assays are run in a buffer containing 20 mM HEPES buffer (pH=7.6), 0.2 mM EDTA, 75 mM NaCl, 1.5 mM MgCl2, 20% glycerol, 20 mM sodium molybdate, 0.2 mM DTT (dithiothreitol), 20 μg/mL aprotinin and 20 μg/mL leupeptin (assay buffer). Typically, steroid receptor binding assays include radio-labeled ligands, such as 0.25 nM [^3H]-aldosterone for MR binding, 0.7 nM [^3H]-dexamethasone for GR binding, 0.36 nM [^3H]-methyltrienolone for AR binding, and 0.29 nM [^3H]-methyltrienolone for PR binding, and either 20 μg 293-MR lysate, 20 μg 293-GR lysate, 22 μg 293-AR lysate, or 40 μg 293-PR lysate per well. Assays are typically run in 96-well format. Competing test compounds are added at various concentrations ranging from about 0.01 nM to 10 μM. Non-specific binding is determined in the presence of 500 nM aldosterone for MR binding, 500 nM dexamethasone for GR binding, or 500 nM methyltrienolone for AR and PR binding. […] After an incubation of 2 hours, plates are read in a Wallac Microbeta counter. […]

Ki: ~669 nM
Structure (SMILES): O=c1[nH]c2cc(/C=C3\c4ccccc4COc4cc(F)ccc43)ccc2n1[C@@H]1C[C@@H]2COCCN2C1 [Compound (I), 5-((E)-(3-fluorodibenzo[b,e]oxepin-11(6H)-ylidene)methyl)-1-((7R,8aR)-hexahydro-1H-pyrrolo[2,1-c][1,4]oxazin-7-yl)-1H-benzo[d]imidazol-2(3H)-one]
